Experimental data as given in patent US8901120B2, “Substituted N-phenylpyrimidin-2-amine analogs as inhibitors of the Axl kinase” (University of Utah Research Foundation, priority 2011, dated 2014).
Where two headings read alike, the source gives them in different places.

Columns and labels:
[1] = target: T1, recombinant human Axl kinase (catalytic domain, amino acids 473-894) (Homo sapiens, UniProt P30530); experiment: Axl kinase activity assay (TR-FRET, fluorescein poly-GT substrate); format: biochemical
T1 construct: catalytic domain, amino acids 473-894; purchased Invitrogen Corporation, Carlsbad, Calif
T1 sequence (P30530 473-894): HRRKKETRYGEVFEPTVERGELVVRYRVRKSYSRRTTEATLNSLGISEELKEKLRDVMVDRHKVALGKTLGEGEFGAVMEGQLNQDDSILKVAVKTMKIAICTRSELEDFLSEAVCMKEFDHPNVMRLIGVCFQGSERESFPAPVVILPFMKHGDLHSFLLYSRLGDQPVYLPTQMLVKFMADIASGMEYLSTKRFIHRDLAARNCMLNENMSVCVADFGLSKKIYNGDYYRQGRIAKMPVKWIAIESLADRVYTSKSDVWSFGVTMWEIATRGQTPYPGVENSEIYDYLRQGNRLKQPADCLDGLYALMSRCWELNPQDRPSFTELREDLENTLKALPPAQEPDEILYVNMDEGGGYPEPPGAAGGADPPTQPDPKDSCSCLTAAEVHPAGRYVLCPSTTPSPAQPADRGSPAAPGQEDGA
Method: Test compounds were diluted to desired concentrations in kinase reaction buffer (50 mM HEPES pH 7.5, 10 mM MgCl2, 1 mM EGTA, 2 mM DTT, and 0.01% v/v Tween-20) and were briefly incubated with Axl kinase (Invitrogen Corporation, Carlsbad, Calif.). The Axl kinase used was recombinant human Axl kinase (catalytic domain, amino acids 473-894) with a histidine tag. The reaction was initiated by the addition of ATP and fluorescein-labeled poly-GT substrate (poly Glu:Tyr, 4:1 polymer; Invitrogen). Concentration of the various components in the assay (10 μl reaction volume) were: 1% DMSO, 93 ng/ml Axl kinase, 20 μM ATP, and 200 nM fluorescein poly-GT substrate. Following addition of ATP and fluorescein poly-GT substrate, incubation was for 60 min at room temperature, the enzyme reaction is stopped by addition of 10 μl terbium-labeled anti-phosphotyrosine PY20 antibody in EDTA-containing buffer. Final concentration of EDTA and antibody after addition to the reaction is 10 mM and 2 nM, respectively. The terbium conjugated antibody generates a time-resolved FRET signal with the fluorescein molecule (bound to the poly-GT substrate) when the substrate is phosphorylated. After one hour incubation at room temperature, fluorescence was measured with excitation of 320 nm and dual emission of 495 and 520 urn on an EnVision microplate reader (PerkinElmer). Signal is expressed in terms of a TR-FRET ratio (fluorescence intensity at 520 nm to 495 nm).
(§1) IC50 values are determined using GraphPad Prism 5 software. The data were entered as an X-Y plot into the software as percent inhibition for each concentration of the drug. The concentration values of the drug were log transformed and the nonlinear regression was carried out using the “sigmoidal dose-response (variable slope)” option within the GraphPad software to model the data and calculate IC50 values.

[2] = system: A549; experiment: Cell viability assay (ATP-Lite), A549; format: cell-based; conditions: Homo sapiens; A549, 96 hours
Method: (§2) All cell lines were cultured in media as recommended by American Type Culture Collection (“ATCC”; supplemented with 10% fetal bovine serum (“FBS”) and 1% penicillin/streptomycin (100 IU/ml pencillin and 100 μg/ml streptomycin) at 37° C. and 5% CO2. The cell lines used in these studies included those indicated in Table II below.
(§3) For cell proliferation assays, 45 μl containing 1000 cells per well were seeded into solid white 384-well plates in appropriate cell growth media containing 10% FBS and incubated overnight at 37° C. and 5% CO2. The following day, test compounds were diluted in serum free growth media to 10× desired concentrations and 5 μl was added to each well. Combined compound and cells were incubated for 96 hours. Following incubation, 40 μl of ATP-Lite solution (PerkinElmer, Inc., Waltham, Massachussetts) was added to each well, incubated for an additional 10 minutes at room temperature and luminescence was measured on an EnVision microplate reader. Percent cell viability for test compounds was calculated by comparing treated wells to appropriate controls (e.g. vehicle treated) included on each plate.
as §1
(§4) The ability of compounds to inhibit the viability of cultured cells was determined using the cell viability assay described above. Activity data for representative compounds is shown below in Table IV for the compounds was tested in the indicated cell lines (PL-45, PANC-1, PSN-1, HepG2, and […]). IC50 values were determined as described above. If IC50 value is indicated as “n.d.”, it means that the compound was […] in the indicated cell line. The compound number corresponds to the numbering used in Table I.

[3] = system: PSN-1; experiment: Cell viability assay (ATP-Lite), PSN-1; format: cell-based; conditions: Homo sapiens, PSN1; PSN-1, 96 hours
Method: as §2, §3, §1
The ability of compounds to inhibit the viability of cultured cells was determined using the cell viability assay described above. […] IC50 values were determined as described above. If IC50 value is indicated as “n.d.”, it means that the compound was […] in the indicated cell line. The compound number corresponds to the numbering used in Table I.

[4] = system: PANC-1; experiment: Cell viability assay (ATP-Lite), PANC-1; format: cell-based; conditions: Homo sapiens; PANC-1, 96 hours
Method: as §2, §3, §1, §4

[5] = system: PL45; experiment: Cell viability assay (ATP-Lite), PL45; format: cell-based; conditions: Homo sapiens; PL45, 96 hours
Method: as §2, §3, §1, §4

[6] = system: HepG2; experiment: Cell viability assay (ATP-Lite), HepG2; format: cell-based; conditions: Homo sapiens; HepG2, 96 hours
Method: as §2, §3, §1, §4

[7] = 20 μM ATP, 93 ng/ml Axl kinase, 60 min, read-out: IC50 (Axl kinase activity)

Row | Compound | IC50 ([1]; tested in triplicate, FIG. 4A, read-out: IC50, inhibition of Axl activity) [nM] | IC50 [2] [nM] | IC50 [4] [nM] | IC50 [1, 7] [nM] | IC50 [6] [nM] | IC50 [3] [nM] | IC50 [5] [nM]
1 | CN1CCN(Cc2ccc(Nc3ncc(Cl)c(Nc4ccccc4S(=O)(=O)N4CCCC4)n3)cc2)CC1 [5-chloro-N2-(4-((4-methylpiperazin-1-yl)methyl)phenyl)-N4-(2-(pyrrolidin-1-ylsulfonyl)phenyl)pyrimidine-2,4-diamine] | ~20 |  |  |  |  |  | 
2 | CN1CCN(Cc2ccc(Nc3ncc(Cl)c(Nc4ccccc4S(=O)(=O)N4CCCC4)n3)cc2)CC1 [Compound 1] |  | 2 | 34 | 20 | 121 | 2 | 47
3 | CN1CCN(Cc2ccc(Nc3ncc(Cl)c(Nc4ccccc4C(=O)NC4CC4)n3)cc2)CC1 [Compound 2] |  | 3 | 303 | 32 | 303 | 64 | 3
4 | CN1CCC(N(C)c2ccc(Nc3ncc(Cl)c(Nc4ccccc4S(=O)(=O)N(C)C)n3)cc2)CC1 [Compound 5] |  |  | 80 | 56 |  |  | 370
5 | CN1CCN(Cc2ccc(Nc3ncc(Cl)c(Nc4ccccc4C(=O)N4CCCC4)n3)cc2)CC1 [Compound 6] |  | 7 | 96 | 61 | 194 | 21 | 14
6 | CN1CCN(Cc2ccc(Nc3ncc(Cl)c(Nc4ccccc4C(=O)N(C)C)n3)cc2)CC1 [Compound 7] |  | 19 | 142 | 88 | 57 | 70 | 95
7 | Cc1cnc(Nc2ccc(CN3CCN(C)CC3)cc2)nc1-c1ccc(C(C)(C)C#N)cc1 [Compound 11] |  |  | 5780 | 289 |  | 2550 | 8210
8 | Cc1cnc(Nc2ccc(N(C)C3CCN(C)CC3)cc2)nc1-c1ccc(F)c(Cl)c1 [Compound 12] |  |  | 10900 | 416 |  | 6710 | 13700
9 | CN1CCN(Cc2ccc(Nc3ncc(Cl)c(Nc4ccc(Cl)cc4S(=O)(=O)N4CCCC4)n3)cc2)CC1 [Compound 15] |  |  |  | 1080 |  |  | 
10 | CN1CCN(Cc2ccc(Nc3ncc(Cl)c(Nc4ccc(O)cc4S(=O)(=O)N4CCCC4)n3)cc2)CC1 [Compound 17] |  |  |  | 1310 |  |  | 
11 | COc1cccc(-c2nc(Nc3ccc(CN4CCN(C)CC4)cc3)ncc2C)c1 [Compound 19] |  |  |  | 1610 |  |  | 
12 | Cc1ccc(-c2nc(Nc3ccc(CN4CCN(C)CC4)cc3)ncc2C)cc1C#N [Compound 20] |  |  |  | 1830 |  |  | 
13 | CC(=O)Nc1cccc(-c2nc(Nc3ccc(CN4CCN(C)CC4)cc3)ncc2C)c1 [Compound 22] |  |  |  | 2300 |  |  | 
14 | Cc1cnc(Nc2ccc(CN3CCN(C)CC3)cc2)nc1-c1cccc(OC(F)(F)F)c1 [Compound 25] |  |  |  | 3300 |  |  | 
15 | Cc1cnc(Nc2ccc(CN3CCN(C)CC3)cc2)nc1-c1cc(Cl)cc(C(F)(F)F)c1 [Compound 28] |  |  |  | 5140 |  |  | 
16 | CN1CCN(Cc2ccc(Nc3nc(N)cc(-c4ccc(F)c(Cl)c4)n3)cc2)CC1 [Compound 29] |  |  |  | 57200 |  |  | 
17 | CN1CCN(Cc2ccc(Nc3ncc(C(F)(F)F)c(Nc4ccccc4C(=O)N(C)C)n3)cc2)CC1 [Compound 31] |  |  |  | > 100000 |  |  | 

Second part, led by results:

Row | IC50 ([1]; tested in triplicate, FIG. 4A, read-out: IC50, inhibition of Axl activity) [nM] | IC50 [2] [nM] | IC50 [4] [nM] | IC50 [1, 7] [nM] | IC50 [6] [nM] | Compound | IC50 [3] [nM] | IC50 [5] [nM]
18 |  | 4 | 93 | 37 | 43 | CN1CCN(Cc2ccc(Nc3ncc(Cl)c(Nc4ccc(F)cc4S(=O)(=O)N4CCCC4)n3)cc2)CC1 [Compound 3] | 9 | 17
19 |  | 8 | 38 |  | 6 | CN1CCN(Cc2ccc(Nc3ncc(Cl)c(Nc4ccccc4S(=O)(=O)N(C)C)n3)cc2)CC1 [Compound 4] |  | 48
20 |  |  |  | 99 |  | CN1CCN(Cc2ccc(Nc3ncc(Cl)c(-c4ccc(F)cc4S(=O)(=O)N(C)C)n3)cc2)CC1 [Compound 8] |  | 
21 |  | 77 | 481 | 119 | 527 | CN1CCN(Cc2ccc(Nc3ncc(Cl)c(-c4ccc(F)cc4S(=O)(=O)N4CCCC4)n3)cc2)CC1 [Compound 9] | 192 | 426
22 |  |  |  | 240 |  | CN1CCN(Cc2ccc(Nc3ncc(Cl)c(Nc4ccc(F)cc4S(=O)(=O)N4CCOCC4)n3)cc2)CC1 [Compound 10] |  | 
23 |  |  | 7600 | 445 |  | Cc1cnc(Nc2ccc(CN3CCN(C)CC3)cc2)nc1-c1cccc(Cl)c1 [Compound 13] | 2660 | 4820
24 |  |  | 7750 | 730 |  | Cc1cnc(Nc2ccc(CN3CCN(C)CC3)cc2)nc1-c1ccc(F)c(Cl)c1 [Compound 14] | 4270 | 14400
25 |  |  |  | 1140 |  | CN1CCN(Cc2ccc(Nc3ncc(F)c(-c4ccc(F)cc4S(=O)(=O)N4CCCC4)n3)cc2)CC1 [Compound 16] |  | 
26 |  |  |  | 1400 |  | Cc1cnc(Nc2ccc(CN3CCN(C)CC3)cc2)nc1Oc1ccc(F)c(Cl)c1 [Compound 18] |  | 
27 |  |  |  | 1860 |  | Cc1cnc(Nc2ccc(CN3CCN(C)CC3)cc2)nc1-c1ccc(F)cc1 [Compound 21] |  | 
28 |  |  |  | 2910 |  | Cc1cnc(Nc2ccc(CN3CCN(C)CC3)cc2)nc1-c1cccc(S(C)(=O)=O)c1 [Compound 23] |  | 
29 |  |  |  | 2930 |  | Cc1cnc(Nc2ccc(CN3CCN(C)CC3)cc2)nc1-c1ccc(F)cc1S(=O)(=O)N1CCCC1 [Compound 24] |  | 
30 |  |  |  | 3350 |  | CN1CCN(Cc2ccc(Nc3ncc(C4CC4)c(-c4ccc(F)c(Cl)c4)n3)cc2)CC1 [Compound 26] |  | 
31 |  |  |  | 3900 |  | CN1CCN(Cc2ccc(Nc3ncc(Cl)c(N(C)c4ccc(F)cc4S(=O)(=O)N4CCCC4)n3)cc2)CC1 [Compound 27] |  | 
32 |  |  |  | 62700 |  | Cc1cnc(Nc2ccc(CN3CCN(C)CC3)cc2)nc1Nc1ccc(F)c(Cl)c1 [Compound 30] |  | 
